# Laboratory results reported in ChEMBL document CHEMBL3885881, “DrugMatrix”.
# Species: Rattus norvegicus
# Test: DrugMatrix - Regimen: Daily Repeat
# Assay type: toxicity, organism-based, Sprague-Dawley
# Set-up: regimen Daily Repeat, gender Male, age 6-8 weeks
# Details: in vivo, po, route oral GAVAGE, […]; for HEMOGLOBIN / LYMPHOCYTE / MEAN CORPUSCULAR HEMOGLOBIN CONCENTRATION / MEAN CORPUSCULAR VOLUME / NUCLEATED RED BLOOD CELLS / PLATELET COUNT / ABSOLUTE BASOPHIL / ABSOLUTE EOSINOPHIL / ABSOLUTE LYMPHOCYTE / ABSOLUTE MONOCYTE / ABSOLUTE SEGMENTED NEUTROPHIL / BASOPHIL / EOSINOPHIL / ERYTHROCYTE COUNT / HEMATOCRIT: tissue Blood; for ALANINE AMINOTRANSFERASE / ALBUMIN / ALKALINE PHOSPHATASE / ASPARTATE AMINOTRANSFERASE / BLOOD UREA NITROGEN / CARBON DIOXIDE / CREATINE PHOSPHOKINASE / CREATININE / LACTATE DEHYDROGENASE / TOTAL BILIRUBIN / TOTAL PROTEIN / URIC ACID: tissue Plasma
# [1] = 215 mg/kg, 72 h, dose level M2, time 3 day
# [2] = 215 mg/kg, 120 h, dose level M2, time 5 day
# [3] = 430 mg/kg, 72 h, dose level M3, time 3 day
# [4] = 430 mg/kg, 120 h, dose level M3, time 5 day
# [5] = 860 mg/kg, 72 h, dose level High, time 3 day
# [6] = 860 mg/kg, dose level High, time 7 day
smiles,measurement,setting,value
CC(C)OC(=O)C(C)(C)Oc1ccc(C(=O)c2ccc(Cl)cc2)cc1 [FENOFIBRATE],HEMOGLOBIN,[1],13.3 G/DL
same,LYMPHOCYTE,[1],89.67%
same,MEAN CORPUSCULAR HEMOGLOBIN CONCENTRATION,[1],39.2 G/DL
same,MEAN CORPUSCULAR VOLUME,[1],61.5 fL
same,NUCLEATED RED BLOOD CELLS,[1],0 /100WBC
same,PLATELET COUNT,[1],1279.67 x10E3/uL
same,ALANINE AMINOTRANSFERASE,[1],84.33 u/L
same,ALBUMIN,[1],4.4 G/DL
same,ALKALINE PHOSPHATASE,[1],436.33 u/L
same,ASPARTATE AMINOTRANSFERASE,[1],108 u/L
same,BLOOD UREA NITROGEN,[1],11.33 mg/dL
same,CARBON DIOXIDE,[1],28.33 mmol/L
same,CREATINE PHOSPHOKINASE,[1],307 u/L
same,CREATININE,[1],0.23 mg/dL
same,LACTATE DEHYDROGENASE,[1],227 u/L
same,TOTAL BILIRUBIN,[1],0.1 mg/dL
same,TOTAL PROTEIN,[1],5.3 G/DL
same,URIC ACID,[1],1.47 mg/dL
same,ABSOLUTE BASOPHIL,[2],0 CELLS/uL
same,ABSOLUTE EOSINOPHIL,[2],0 CELLS/uL
same,ABSOLUTE LYMPHOCYTE,[2],6815.67 CELLS/uL
same,ABSOLUTE MONOCYTE,[2],96.33 CELLS/uL
same,ABSOLUTE SEGMENTED NEUTROPHIL,[2],721.33 CELLS/uL
same,BASOPHIL,[2],0%
same,EOSINOPHIL,[2],0%
same,ERYTHROCYTE COUNT,[2],5.68 x10E6/uL
same,HEMATOCRIT,[2],34.5%
same,HEMOGLOBIN,[2],13.47 G/DL
same,LYMPHOCYTE,[2],90%
same,MEAN CORPUSCULAR HEMOGLOBIN CONCENTRATION,[2],39.07 G/DL
same,MEAN CORPUSCULAR VOLUME,[2],60.77 fL
same,NUCLEATED RED BLOOD CELLS,[2],0 /100WBC
same,PLATELET COUNT,[2],1144.67 x10E3/uL
same,ALANINE AMINOTRANSFERASE,[2],92.67 u/L
same,ALBUMIN,[2],4.8 G/DL
same,ALKALINE PHOSPHATASE,[2],542 u/L
same,ASPARTATE AMINOTRANSFERASE,[2],108.67 u/L
same,BLOOD UREA NITROGEN,[2],9 mg/dL
same,CARBON DIOXIDE,[2],35.67 mmol/L
same,CREATINE PHOSPHOKINASE,[2],436 u/L
same,CREATININE,[2],0.23 mg/dL
same,LACTATE DEHYDROGENASE,[2],185.67 u/L
same,TOTAL BILIRUBIN,[2],0.1 mg/dL
same,TOTAL PROTEIN,[2],5.87 G/DL
same,URIC ACID,[2],0.93 mg/dL
same,ABSOLUTE BASOPHIL,[3],0 CELLS/uL
same,ABSOLUTE EOSINOPHIL,[3],35 CELLS/uL
same,ABSOLUTE LYMPHOCYTE,[3],8585.33 CELLS/uL
same,ABSOLUTE MONOCYTE,[3],165.67 CELLS/uL
same,ABSOLUTE SEGMENTED NEUTROPHIL,[3],847.33 CELLS/uL
same,BASOPHIL,[3],0%
same,EOSINOPHIL,[3],0.33%
same,ERYTHROCYTE COUNT,[3],5.9 x10E6/uL
same,HEMATOCRIT,[3],37.27%
same,LYMPHOCYTE,[3],89.33%
same,MEAN CORPUSCULAR HEMOGLOBIN CONCENTRATION,[3],38.8 G/DL
same,MEAN CORPUSCULAR VOLUME,[3],63.17 fL
same,NUCLEATED RED BLOOD CELLS,[3],0 /100WBC
same,PLATELET COUNT,[3],1091.33 x10E3/uL
same,ALANINE AMINOTRANSFERASE,[3],125.33 u/L
same,ALBUMIN,[3],3.57 G/DL
same,ALKALINE PHOSPHATASE,[3],509.67 u/L
same,ASPARTATE AMINOTRANSFERASE,[3],123.67 u/L
same,BLOOD UREA NITROGEN,[3],12 mg/dL
same,CARBON DIOXIDE,[3],25.67 mmol/L
same,CREATINE PHOSPHOKINASE,[3],211 u/L
same,CREATININE,[3],0.21 mg/dL
same,LACTATE DEHYDROGENASE,[3],138.33 u/L
same,TOTAL BILIRUBIN,[3],0.23 mg/dL
same,TOTAL PROTEIN,[3],4.8 G/DL
same,URIC ACID,[3],0.57 mg/dL
same,ABSOLUTE BASOPHIL,[4],0 CELLS/uL
same,ABSOLUTE EOSINOPHIL,[4],84 CELLS/uL
same,ABSOLUTE LYMPHOCYTE,[4],7042 CELLS/uL
same,ABSOLUTE MONOCYTE,[4],80.5 CELLS/uL
same,ABSOLUTE SEGMENTED NEUTROPHIL,[4],843.5 CELLS/uL
same,BASOPHIL,[4],0%
same,EOSINOPHIL,[4],1%
same,ERYTHROCYTE COUNT,[4],5.34 x10E6/uL
same,HEMATOCRIT,[4],33.8%
same,HEMOGLOBIN,[4],13.3 G/DL
same,LYMPHOCYTE,[4],87.5%
same,MEAN CORPUSCULAR HEMOGLOBIN CONCENTRATION,[4],39.35 G/DL
same,MEAN CORPUSCULAR VOLUME,[4],63.4 fL
same,NUCLEATED RED BLOOD CELLS,[4],0 /100WBC
same,PLATELET COUNT,[4],1064.5 x10E3/uL
same,ALANINE AMINOTRANSFERASE,[4],87.5 u/L
same,ALBUMIN,[4],4.65 G/DL
same,ALKALINE PHOSPHATASE,[4],418.5 u/L
same,ASPARTATE AMINOTRANSFERASE,[4],104.5 u/L
same,BLOOD UREA NITROGEN,[4],13 mg/dL
same,CARBON DIOXIDE,[4],27 mmol/L
same,CREATINE PHOSPHOKINASE,[4],307 u/L
same,CREATININE,[4],0.31 mg/dL
same,LACTATE DEHYDROGENASE,[4],104 u/L
same,TOTAL BILIRUBIN,[4],0.15 mg/dL
same,TOTAL PROTEIN,[4],5.5 G/DL
same,URIC ACID,[4],0.6 mg/dL
same,ABSOLUTE BASOPHIL,[5],0 CELLS/uL
same,ABSOLUTE EOSINOPHIL,[5],44 CELLS/uL
same,ABSOLUTE LYMPHOCYTE,[5],10937 CELLS/uL
same,ABSOLUTE MONOCYTE,[5],410.5 CELLS/uL
same,ABSOLUTE SEGMENTED NEUTROPHIL,[5],2833.5 CELLS/uL
same,BASOPHIL,[5],0%
same,EOSINOPHIL,[5],0.25%
same,ERYTHROCYTE COUNT,[5],6.03 x10E6/uL
same,HEMATOCRIT,[5],37.23%
same,HEMOGLOBIN,[5],15.3 G/DL
same,LYMPHOCYTE,[5],75.75%
same,MEAN CORPUSCULAR HEMOGLOBIN CONCENTRATION,[5],41.35 G/DL
same,MEAN CORPUSCULAR VOLUME,[5],61.7 fL
same,NUCLEATED RED BLOOD CELLS,[5],0 /100WBC
same,PLATELET COUNT,[5],961.5 x10E3/uL
same,ALANINE AMINOTRANSFERASE,[5],233.5 u/L
same,ALBUMIN,[5],4.15 G/DL
same,ALKALINE PHOSPHATASE,[5],474.75 u/L
same,ASPARTATE AMINOTRANSFERASE,[5],132.75 u/L
same,BLOOD UREA NITROGEN,[5],13 mg/dL
same,CARBON DIOXIDE,[5],29 mmol/L
same,CREATINE PHOSPHOKINASE,[5],233.75 u/L
same,CREATININE,[5],0.14 mg/dL
same,LACTATE DEHYDROGENASE,[5],160.5 u/L
same,TOTAL BILIRUBIN,[5],0.28 mg/dL
same,TOTAL PROTEIN,[5],5.55 G/DL
same,ABSOLUTE BASOPHIL,[6],0 CELLS/uL
same,ABSOLUTE EOSINOPHIL,[6],0 CELLS/uL
same,ABSOLUTE LYMPHOCYTE,[6],6863 CELLS/uL
same,ABSOLUTE MONOCYTE,[6],370.5 CELLS/uL
same,ABSOLUTE SEGMENTED NEUTROPHIL,[6],5116.5 CELLS/uL
same,BASOPHIL,[6],0%
same,EOSINOPHIL,[6],0%
same,ERYTHROCYTE COUNT,[6],6.05 x10E6/uL
same,HEMATOCRIT,[6],35.15%
same,HEMOGLOBIN,[6],13.8 G/DL
same,LYMPHOCYTE,[6],55.5%
same,MEAN CORPUSCULAR HEMOGLOBIN CONCENTRATION,[6],39.4 G/DL
same,MEAN CORPUSCULAR VOLUME,[6],57.6 fL
same,NUCLEATED RED BLOOD CELLS,[6],2 /100WBC
same,PLATELET COUNT,[6],1590.5 x10E3/uL
same,ALANINE AMINOTRANSFERASE,[6],283.5 u/L
same,ALBUMIN,[6],3 G/DL
same,ALKALINE PHOSPHATASE,[6],812 u/L
same,ASPARTATE AMINOTRANSFERASE,[6],328 u/L
same,BLOOD UREA NITROGEN,[6],63 mg/dL
same,CARBON DIOXIDE,[6],25 mmol/L
same,CREATINE PHOSPHOKINASE,[6],1456.5 u/L
same,CREATININE,[6],0.58 mg/dL
same,LACTATE DEHYDROGENASE,[6],638 u/L
same,TOTAL BILIRUBIN,[6],2.9 mg/dL
same,TOTAL PROTEIN,[6],5.7 G/DL
